pIC50: −log10 of the molar value. Numbered stars: 1 amine (or outer) side, 2 acyl side, 3 side chain; on linkers, the order of the positions; unused ones are H or OH. Bridge positions count the residues as written; N and C are the ends. Square brackets hold non-standard residues; d marks the D form. Peptide text beside a SMILES is read from it. Trp(βS-Me,7-OMe) = COc1cccc2c([C@H](C)[C@H](N)C(=O)O)c[nH]c12; X5 = COc1cccc2[nH]cc([C@H](C)[C@H](N[*:1])C(=O)[*:2])c12; Phe(4-CH2COOH) = N[C@@H](Cc1ccc(CC(=O)O)cc1)C(=O)O; Trp(7-CN) = N#Cc1cccc2c(C[C@H](N)C(=O)O)c[nH]c12; Trp(7-Cl) = N[C@@H](Cc1c[nH]c2c(Cl)cccc12)C(=O)O; Phe(4-CONH2) = NC(=O)c1ccc(C[C@H](N)C(=O)O)cc1; Phe(4-COOH) = N[C@@H](Cc1ccc(C(=O)O)cc1)C(=O)O; Trp(7-aza) = N[C@@H](Cc1c[nH]c2ncccc12)C(=O)O; Phe(4-CH2NH2) = NCc1ccc(C[C@H](N)C(=O)O)cc1; Ala(4-thiazolyl) = N[C@@H](Cc1cscn1)C(=O)O; dPro(4S-NH2) = N[C@@H]1CN[C@@H](C(=O)O)C1; Pip(5R-OH) = O=C(O)[C@@H]1CC[C@@H](O)CN1; αMeW = C[C@](N)(Cc1c[nH]c2ccccc12)C(=O)O; X1 = O=C([C@@H]1CC[C@H](N[*:1])C1)[*:2]; Gly(Nα-CH2CH2CONH2) = NC(=O)CCNCC(=O)O; Pip(4-aza) = O=C(O)[C@@H]1CNCCN1; hPhe = N[C@@H](CCc1ccccc1)C(=O)O; 4Pal = N[C@@H](Cc1ccncc1)C(=O)O; NMeE = CN[C@@H](CCC(=O)O)C(=O)O; dHyp = O=C(O)[C@H]1C[C@H](O)CN1; Cit = NC(=O)NCCC[C@H](N)C(=O)O; aThr = C[C@H](O)[C@H](N)C(=O)O; NMeDab = CN[C@@H](CCN)C(=O)O; Dap(Me) = CNC[C@H](N)C(=O)O; NMeS = CN[C@@H](CO)C(=O)O; αMeS = C[C@](N)(CO)C(=O)O; NMeA = CN[C@@H](C)C(=O)O; Nle = CCCC[C@H](N)C(=O)O; Sar = CNCC(=O)O
Biological target: T1, TNFα-induced NF-κB signal transduction pathway (TNFR1 signaling) in THP-1 cells (Homo sapiens, UniProt P19438)
T1 sequence (P19438 30-455): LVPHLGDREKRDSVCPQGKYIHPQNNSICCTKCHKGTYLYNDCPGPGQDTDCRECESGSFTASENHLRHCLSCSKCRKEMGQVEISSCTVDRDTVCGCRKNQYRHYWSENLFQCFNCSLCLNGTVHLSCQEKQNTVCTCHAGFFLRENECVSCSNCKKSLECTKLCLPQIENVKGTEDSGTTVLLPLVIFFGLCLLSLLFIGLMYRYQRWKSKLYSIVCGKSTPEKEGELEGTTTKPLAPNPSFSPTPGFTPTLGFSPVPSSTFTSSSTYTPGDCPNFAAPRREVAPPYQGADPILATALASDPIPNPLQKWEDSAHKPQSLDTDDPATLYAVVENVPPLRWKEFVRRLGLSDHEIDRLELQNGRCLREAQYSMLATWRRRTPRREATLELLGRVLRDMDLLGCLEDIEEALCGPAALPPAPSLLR
Assay: THP-1 Lucia NF-κB reporter cell assay, inhibition of TNFα-induced NF-κB signaling
Assay type: cell-based
Conditions: THP-1 NF-κB Lucia reporter cells, 10 ng/mL TNFα, 16-18 h, secreted luciferase; read-out: THP-1 IC50
Summary of the method: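 Inhibition of TNFR1-driven NF-κB activation was measured as luminescence of secreted reporter luciferase following overnight (16-18 h) stimulation with 10 ng/mL TNFα.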

Row | Compound | pIC50
1 | CCCC[C@@H]1NC(=O)[C@@H]2CC[C@@H](C2)NC(=O)[C@H]([C@@H](C)c2c[nH]c3c(OC)cccc23)NC(=O)CN(C)C(=O)[C@H](Cc2ccc(O)cc2)NC(=O)[C@H](Cc2ccc(C(=O)O)cc2)NC(=O)[C@](C)(CO)NC(=O)[C@H](Cc2c[nH]c3c(Cl)cccc23)NC(=O)[C@H](Cc2ccncc2)NC(=O)[C@H](CC(N)=O)NC(=O)[C@H]2C[C@H](N)CN2C(=O)[C@H](Cc2c[nH]c3ccccc23)NC(=O)[C@@H]2CNCCN2C(=O)[C@H](Cc2ccncc2)NC1=O [SEQ ID NO. 161] (cyclo([4Pal][Trp(7-Cl)][αMeS][Phe(4-COOH)]Y[Sar][Trp(βS-Me,7-OMe)][X1][Nle][4Pal][Pip(4-aza)]W[dPro(4S-NH2)]N)) | 8.89
2 | CN1CC(=O)N[C@@H](Cc2c[nH]c3ccccc23)C(=O)N[C@H](C(N)=O)CSCC(=O)N[C@@H](CCCCN)C(=O)N[C@@H](Cc2ccc(O)cc2)C(=O)N[C@@H](CO)C(=O)N[C@@H](Cc2c[nH]c3ccccc23)C(=O)N2CCC[C@@H]2C(=O)N[C@@H](CCCNC(N)=O)C(=O)N[C@@H](Cc2ccncc2)C(=O)N[C@@H](Cc2c[nH]c3ccccc23)C(=O)N[C@@](C)(CO)C(=O)N[C@@H](Cc2ccc(C(=O)O)cc2)C(=O)N[C@@H](Cc2ccc(O)cc2)C1=O [SEQ ID NO. 256] ({CH2CO}-KYSW[dP][Cit][4Pal]W[αMeS][Phe(4-COOH)]Y[Sar]WC-NH2; thioether N-14) | 8.21
3 | CCCC[C@@H]1NC(=O)[C@@H]2CC[C@@H](C2)NC(=O)[C@H]([C@@H](C)c2c[nH]c3c(OC)cccc23)NC(=O)CN(C)C(=O)[C@H](Cc2ccc(C(N)=O)cc2)NC(=O)[C@H](Cc2ccc(C(N)=O)cc2)NC(=O)[C@](C)(CO)NC(=O)[C@H](Cc2c[nH]c3c(C#N)cccc23)NC(=O)[C@H](Cc2ccc(C(=O)O)cc2)NC(=O)[C@H]([C@H](C)O)NC(=O)[C@H]2C[C@H](O)CN2C(=O)[C@H](Cc2c[nH]c3ncccc23)NC(=O)[C@@H]2CC[C@@H](O)CN2C(=O)[C@H](Cc2ccncc2)NC1=O [SEQ ID NO. 122] (cyclo([4Pal][Pip(5R-OH)][Trp(7-aza)][dHyp][aThr][Phe(4-COOH)][Trp(7-CN)][αMeS][Phe(4-CONH2)][Phe(4-CONH2)][Sar][Trp(βS-Me,7-OMe)][X1][Nle])) | 9.05
4 | CCCC[C@@H]1NC(=O)CSC[C@@H](C(N)=O)NC(=O)[C@H]([C@@H](C)c2c[nH]c3cccc(OC)c23)NC(=O)CN(C)C(=O)[C@H](Cc2ccc(O)cc2)NC(=O)[C@H](Cc2ccc(C(N)=O)cc2)NC(=O)[C@](C)(CO)NC(=O)[C@H](Cc2c[nH]c3c(Cl)cccc23)NC(=O)[C@H](Cc2ccc(C(=O)O)cc2)NC(=O)[C@H](CC(N)=O)NC(=O)[C@H](CCC(=O)O)N(C)C(=O)[C@H](Cc2c[nH]c3ncccc23)NC(=O)[C@H](CO)N(C)C(=O)[C@H](Cc2ccncc2)NC1=O [SEQ ID NO. 209] ({CH2CO}-[Nle][4Pal][NMeS][Trp(7-aza)][NMeE]N[Phe(4-COOH)][Trp(7-Cl)][αMeS][Phe(4-CONH2)]Y[Sar][X5]C-NH2; thioether N-14) | 8.57
5 | CCCC[C@@H]1NC(=O)CSC[C@@H](C(N)=O)NC(=O)[C@](C)(Cc2c[nH]c3ccccc23)NC(=O)CN(C)C(=O)[C@H](Cc2ccc(O)cc2)NC(=O)[C@H](Cc2ccc(CC(=O)O)cc2)NC(=O)[C@](C)(CO)NC(=O)[C@H](Cc2c[nH]c3c(Cl)cccc23)NC(=O)[C@H](Cc2ccncc2)NC(=O)[C@H](CC(N)=O)NC(=O)[C@H](CCC(=O)O)N(C)C(=O)[C@H](Cc2c[nH]c3ncccc23)NC(=O)[C@H](CO)NC(=O)[C@H](Cc2ccc(CN)cc2)NC1=O [SEQ ID NO. 224] ({CH2CO}-[Nle][Phe(4-CH2NH2)]S[Trp(7-aza)][NMeE]N[4Pal][Trp(7-Cl)][αMeS][Phe(4-CH2COOH)]Y[Sar][αMeW]C-NH2; thioether N-14) | 8.32
6 | CCCC[C@@H]1NC(=O)[C@@H]2CC[C@@H](C2)NC(=O)[C@H]([C@@H](C)c2c[nH]c3c(OC)cccc23)NC(=O)CN(C)C(=O)[C@H](Cc2ccc(C(=O)O)cc2)NC(=O)[C@H](Cc2ccc(C(N)=O)cc2)NC(=O)[C@](C)(CO)NC(=O)[C@H](Cc2c[nH]c3c(C#N)cccc23)NC(=O)[C@H](Cc2ccc(C(=O)O)cc2)NC(=O)[C@H](CC(N)=O)NC(=O)CN(CCC(N)=O)C(=O)[C@H](Cc2c[nH]c3ccccc23)NC(=O)[C@@H]2CC[C@@H](O)CN2C(=O)[C@H](Cc2ccncc2)NC1=O [SEQ ID NO. 130] (cyclo([4Pal][Pip(5R-OH)]W[Gly(Nα-CH2CH2CONH2)]N[Phe(4-COOH)][Trp(7-CN)][αMeS][Phe(4-CONH2)][Phe(4-COOH)][Sar][Trp(βS-Me,7-OMe)][X1][Nle])) | 9.15
7 | CCCC[C@@H]1NC(=O)CSC[C@@H](C(N)=O)NC(=O)[C@](C)(Cc2c[nH]c3ccccc23)NC(=O)CN(C)C(=O)[C@H](Cc2ccc(O)cc2)NC(=O)[C@H](Cc2ccc(C(=O)O)cc2)NC(=O)[C@](C)(CO)NC(=O)[C@H](Cc2c[nH]c3c(Cl)cccc23)NC(=O)[C@H](Cc2ccncc2)NC(=O)[C@H](CC(N)=O)NC(=O)[C@H](CCC(=O)O)N(C)C(=O)[C@H](Cc2c[nH]c3ncccc23)NC(=O)[C@H](CNC)NC(=O)[C@H](Cc2ccncc2)NC1=O [SEQ ID NO. 235] ({CH2CO}-[Nle][4Pal][Dap(Me)][Trp(7-aza)][NMeE]N[4Pal][Trp(7-Cl)][αMeS][Phe(4-COOH)]Y[Sar][αMeW]C-NH2; thioether N-14) | 8.30
8 | CCCC[C@@H]1NC(=O)[C@@H]2CC[C@@H](C2)NC(=O)[C@H]([C@@H](C)c2c[nH]c3c(OC)cccc23)NC(=O)CN(C)C(=O)[C@H](Cc2ccc(C(N)=O)cc2)NC(=O)[C@H](Cc2ccc(C(N)=O)cc2)NC(=O)[C@](C)(CO)NC(=O)[C@H](Cc2c[nH]c3c(Cl)cccc23)NC(=O)[C@H](Cc2ccncc2)NC(=O)[C@H](CC(N)=O)NC(=O)[C@H](CCC(=O)O)N(C)C(=O)[C@H](Cc2c[nH]c3ccccc23)NC(=O)[C@@H]2CC[C@@H](O)CN2C(=O)[C@H](Cc2ccncc2)NC1=O [SEQ ID NO. 229] (cyclo([4Pal][Trp(7-Cl)][αMeS][Phe(4-CONH2)][Phe(4-CONH2)][Sar][Trp(βS-Me,7-OMe)][X1][Nle][4Pal][Pip(5R-OH)]W[NMeE]N)) | 9.30
9 | CCCC[C@@H]1NC(=O)[C@@H]2CC[C@@H](C2)NC(=O)[C@H]([C@@H](C)c2c[nH]c3c(OC)cccc23)NC(=O)CN(C)C(=O)[C@H](Cc2ccc(OC)cc2)NC(=O)[C@H](Cc2ccc(C(=O)O)cc2)NC(=O)[C@](C)(CO)NC(=O)[C@H](Cc2c[nH]c3c(Cl)cccc23)NC(=O)[C@H](Cc2ccc(C(N)=O)cc2)NC(=O)[C@H](CCC(N)=O)NC(=O)[C@H](CCC(=O)O)N(C)C(=O)[C@H](Cc2c[nH]c3ccccc23)NC(=O)[C@@H]2CNCCN2C(=O)[C@H](Cc2ccncc2)NC1=O [SEQ ID NO. 240] (cyclo([4Pal][Pip(4-aza)]W[NMeE]Q[Phe(4-CONH2)][Trp(7-Cl)][αMeS][Phe(4-COOH)]Y(Me)[Sar][Trp(βS-Me,7-OMe)][X1][Nle])) | 9.00
10 | C[C@H]1C(=O)N[C@@H](CC(N)=O)C(=O)N[C@@H](Cc2ccncc2)C(=O)N[C@@H](Cc2c[nH]c3ccccc23)C(=O)N[C@@](C)(CO)C(=O)N[C@@H](Cc2ccc(C(=O)O)cc2)C(=O)N[C@@H](CCCNC(=N)N)C(=O)N(C)CC(=O)N[C@@H](Cc2c[nH]c3ccccc23)C(=O)N[C@H](C(N)=O)CSCC(=O)N[C@@H](CCc2ccccc2)C(=O)N[C@@H](Cc2ccc(O)cc2)C(=O)N[C@@H](CO)C(=O)N[C@@H](Cc2c[nH]c3ccccc23)C(=O)N1C [SEQ ID NO. 260] ({CH2CO}-[hPhe]YSW[NMeA]N[4Pal]W[αMeS][Phe(4-COOH)]R[Sar]WC-NH2; thioether N-14) | 7.30
11 | CCCC[C@@H]1NC(=O)CSC[C@@H](C(N)=O)NC(=O)[C@H]([C@@H](C)c2c[nH]c3c(OC)cccc23)NC(=O)CN(C)C(=O)[C@H](Cc2ccc(O)cc2)NC(=O)[C@H](Cc2ccc(C(=O)O)cc2)NC(=O)[C@](C)(CO)NC(=O)[C@H](Cc2c[nH]c3c(Cl)cccc23)NC(=O)[C@H](Cc2ccncc2)NC(=O)[C@H](CC(N)=O)NC(=O)[C@H](CCC(=O)O)N(C)C(=O)[C@H](Cc2c[nH]c3ncccc23)NC(=O)[C@H](Cc2cscn2)NC(=O)[C@H](Cc2ccncc2)NC1=O [SEQ ID NO. 253] ({CH2CO}-[Nle][4Pal][Ala(4-thiazolyl)][Trp(7-aza)][NMeE]N[4Pal][Trp(7-Cl)][αMeS][Phe(4-COOH)]Y[Sar][Trp(βS-Me,7-OMe)]C-NH2; thioether N-14) | 8.36
12 | CCCC[C@@H]1NC(=O)CSC[C@@H](C(N)=O)NC(=O)[C@](C)(Cc2c[nH]c3ccccc23)NC(=O)CN(C)C(=O)[C@H](Cc2ccc(O)cc2)NC(=O)[C@H](Cc2ccc(C(=O)O)cc2)NC(=O)[C@](C)(CO)NC(=O)[C@H](Cc2c[nH]c3c(Cl)cccc23)NC(=O)[C@H](Cc2ccncc2)NC(=O)[C@H](CC(N)=O)NC(=O)[C@H](CCC(=O)O)N(C)C(=O)[C@H](Cc2c[nH]c3ncccc23)NC(=O)[C@H](CCN)N(C)C(=O)[C@H](Cc2ccncc2)NC1=O [SEQ ID NO. 231] ({CH2CO}-[Nle][4Pal][NMeDab][Trp(7-aza)][NMeE]N[4Pal][Trp(7-Cl)][αMeS][Phe(4-COOH)]Y[Sar][αMeW]C-NH2; thioether N-14) | 8.21

Source: US20240287138A1, “CYCLIC PEPTIDES FOR INHIBITING TNF RECEPTOR 1 ACTIVITY” (Merck Sharp & Dohme LLC, priority 2023, published 2024)
